Where two headings read alike, the source gives them in different places. Residues, ends and D or L forms follow the SMILES beside them.
Columns and labels:
[1] = tested on: human erythrocytes (HRBC); assay type: cell-based
[2] = In vivo toxicity and safety pharmacology, i.v./i.p./s.c.
in vivo [3] = settings: both, mouse, plasma, inhaled or intranasal; for AUC(0-t) / Cmax: Plasma, mice
E. coli = E. coli MDR/ESBL; after 20 passages + 3 drug-free passages
[4] = mouse IP
[5] = Dose range finding & MTD iv toxicity
in vivo [6] = settings: mouse, ip, Cross species PK, concentration (Fig 6 source data)
C. albicans = assay: microbe, parasite or virus in culture
C. neoformans = assay: microbe, parasite or virus in culture
[7] = 5 mg kg-1/day, Day 1, 5 mg kg-1/day, 2 hour daily inhalation
[8] = 5 mg kg-1/day, Day 7, 5 mg kg-1/day, inhalation
[9] = 40 mg kg-1/day, Day 1, 40 mg kg-1/day, inhalation
[10] = cynomolgus monkey, in vivo, iv, 20 mg/kg

**Q.** Which results are given for `CC(C)[C@@H]1NC(=O)[C@H](Cc2ccc(O)cc2)NC(=O)[C@H](Cc2c[nH]c3ccccc23)NC(=O)[C@@H](NC(=O)[C@H](Cc2ccccc2)NC(=O)CN)CSSC[C@@H](C(=O)N[C@@H](CC(N)=O)C(=O)O)NC(=O)[C@H](CCCNC(=N)N)NC(=O)[C@H](CCCNC(=N)N)NC(=O)[C@H](Cc2ccc(O)cc2)NC(=O)[C@@H]2CSSC[C@H](NC1=O)C(=O)N[C@@H](C)C(=O)N[C@@H](CCCNC(=N)N)C(=O)N[C@@H](CCCNC(=N)N)C(=O)N[C@@H](CC(N)=O)C(=O)NCC(=O)N[C@@H](C)C(=O)N[C@@H](CCCNC(=N)N)C(=O)N[C@@H](C(C)C)C(=O)N2` [AA139] (HELM PEPTIDE1{G.F.C.W.Y.V.C.A.R.R.N.G.A.R.V.C.Y.R.R.C.N}$PEPTIDE1,PEPTIDE1,3:R3-20:R3|PEPTIDE1,PEPTIDE1,7:R3-16:R3$$$V2.0)?
**A.** Heamolysis HC10, Mean [1]: >300 µg/mL; Heamolysis HC10 ([1]; red cells of human, 3 h): >300 µg/mL; NOAEL in mice ([2]; 7-day or 14-day repeated 2 h i.v. infusion once or twice daily): 20 mg kg^−1 per day; MTD ([2]; mouse, in vivo, ip): 20 mg/kg; MTD ([2]; mouse, in vivo, iv): 15 mg/kg; MTD at 168 h ([2]; mouse, in vivo, iv): 25 mg/kg; AUC(0-t) ([2]; mouse, in vivo, iv, 20 mg/kg): 28000 ng·h/mL; Cmax ([2]; mouse, in vivo, iv, 20 mg/kg, Cmax, Mouse, 14-day iv toxicity, GLP, TK dose 20 mg/kg, Day 1): 11600 ng/mL; Cmax ([2]; mouse, in vivo, iv, 20 mg/kg, Cmax, Mouse, 14-day iv toxicity, GLP, TK dose 20 mg/kg, Day 14): 9600 ng/mL; AUC(0-inf) ([2]; mouse, in vivo, iv, 29 mg/kg): 43800 ng·h/mL; Cmax ([2]; mouse, in vivo, iv, 29 mg/kg): 7500 ng/mL; NOAEL at 168 h ([2]; mouse, in vivo, iv, NOAEL, 7-day iv MTD, IV 2-h infusion, doses 20, 25, 30): 20 mg/kg; NOAEL at 336 h ([2]; mouse, in vivo, iv, NOAEL, 14-day iv toxicity, GLP, IV 2-h infusion, 0, 10, 15, 20 BID): 40 mg/kg/day; NOAEL ([2]; mouse, in vivo, iv, NOAEL, CNS & respiratory safety pharmacology iv, IV 2-h infusion, doses 0, 15, 20, 25): 20 mg/kg; NOAEL ([2]; mouse, in vivo, iv, NOAEL, single-dose iv MTD, doses 0, 5, 7.5, 10, 15, 20): 5 mg/kg; MTD ([2]; mouse, in vivo, sc, 100 mg/kg): 100 mg/kg; Tmax (in vivo [3]; 5 mg kg-1/day): 18 min; AUC(0-t) (in vivo [3]; [7]): 262 ng·h/mL; AUC(0-t) (in vivo [3]; [8]): 85 ng·h/mL; Cmax (in vivo [3]; [7]): 122 ng/mL; Cmax (in vivo [3]; [8]): 64 ng/mL; Tmax (in vivo [3]; 20 mg kg-1/day): 18 min; Cmax (in vivo [3]; 20 mg kg-1/day, Day 1, 20 mg kg-1/day, inhalation): 952 ng/mL; Cmax (in vivo [3]; 20 mg kg-1/day, Day 7, 20 mg kg-1/day, inhalation): 467 ng/mL; Tmax (in vivo [3]; 40 mg kg-1/day): 18 min; AUC(0-t) (in vivo [3]; [9]): 4540 ng·h/mL; Cmax (in vivo [3]; [9]): 2460 ng/mL; Final MIC (E. coli): 1 µg/mL; Cross species PK, concentration (Fig 6 source data) ([4]; time 0.08 h, replicate 1): 6190; Cross species PK, concentration (Fig 6 source data) ([4]; time 0.08 h, replicate 3): 3520; Cross species PK, concentration (Fig 6 source data) ([4]; time 0.5 h, replicate 1): 5370; Cross species PK, concentration (Fig 6 source data) ([4]; time 0.5 h, replicate 2): 4790; Cross species PK, concentration (Fig 6 source data) ([4]; time 0.5 h, replicate 3): 6580; AUC(0-inf) [5, 10]: 80300 ng·h/mL; Cmax [5, 10]: 15800 ng/mL; NOAEL in monkeys ([5]; i.v. over 2 h QD or BID): 15 mg kg^−1 per day; level at 1 h (in vivo [6]; replicate 1): 5200 ng/mL; level at 1 h (in vivo [6]; replicate 2): 5250 ng/mL; level at 1 h (in vivo [6]; replicate 3): 5230 ng/mL; level at 2 h (in vivo [6]; replicate 1): 4240 ng/mL; level at 2 h (in vivo [6]; replicate 2): 4550 ng/mL; level at 2 h (in vivo [6]; replicate 3): 4140 ng/mL; level at 4 h (in vivo [6]; replicate 1): 1820 ng/mL; level at 4 h (in vivo [6]; replicate 2): 1560 ng/mL; level at 4 h (in vivo [6]; replicate 3): 1370 ng/mL; level at 8 h (in vivo [6]; replicate 1): 570 ng/mL; level at 8 h (in vivo [6]; replicate 2): 472 ng/mL; level at 8 h (in vivo [6]; replicate 3): 682 ng/mL; BMD MIC (C. albicans): ≥32 µg/mL; BMD MIC (C. albicans; 24 h): 64 µg/mL; BMD MIC (C. neoformans): 1 µg/mL; MIC against Cryptococcus neoformans (C. neoformans): 1 to 4 µg/mL
